Laboratory results taken from publication PMC6600542 (Molecules, 2019).
Several values for one entry are separate records, joined by “and”; a condition that tells them apart may be missing. Identical values can stand only once.

Tests used:
human α-thrombin = target: T1, human α-thrombin (Homo sapiens, UniProt P00734); test: Thrombin chromogenic substrate hydrolysis assay; assay type: biochemical
T1 construct: purchased Haematologic Technologies, Inc
Experimental: (§1) Direct inhibition of human FXa and α-thrombin of the common coagulation pathway and human plasmin of the fibrinolysis pathway were measured using the corresponding chromogenic substrate hydrolysis assays at 37 °C and pH 7.4, as reported earlier using the 96-microplate platform. […] After 10 min incubation, 5 µL Spectrozyme FXa (5 mM stock conc.) was rapidly added and the residual activity of FXa was measured from the initial rate of increase in absorbance at 405 nm. […] The concentration vs effect curve was constructed using logistic Equation (1) from which the potency (IC50) and efficacy (ΔY) of inhibition were also obtained.
For thrombin and plasmin, the assays were performed using substrates appropriate for each enzyme (Spectrozyme TH for thrombin and Spectrozyme PL for plasmin) under conditions closest to the physiological condition. The KM of the substrate for its enzyme was used to identify the concentration of the substrate to be used for inhibition studies. […] After 10 min incubation, 5 µL Spectrozyme TH (1.0 mM stock conc.) was rapidly added and the residual activity of thrombin was measured from the initial rate of increase in absorbance at 405 nm. […] After 10 min incubation, 5 µL Spectrozyme PL (1.0 mM stock conc.) was rapidly added and the residual activity of plasmin was measured from the initial rate of increase in absorbance at 405 nm. […]

human plasmin [1] = target: T2, human plasmin (Homo sapiens, UniProt P00747); test: In vitro plasmin-mediated clot lysis (fibrinolysis) assay; assay type: biochemical; details: rate of clot lysis over 5–100 min, pH 7.4, 25 °C
T2 sequence (P00747 581-810 limits assumed): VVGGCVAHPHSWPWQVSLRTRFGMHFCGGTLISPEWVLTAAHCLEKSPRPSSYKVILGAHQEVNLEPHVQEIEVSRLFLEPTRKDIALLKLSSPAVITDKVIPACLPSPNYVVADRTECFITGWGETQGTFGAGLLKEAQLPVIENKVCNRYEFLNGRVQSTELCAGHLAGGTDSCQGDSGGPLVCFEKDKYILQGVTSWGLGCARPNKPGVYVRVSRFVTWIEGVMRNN
T2 sequence (P00747 97-580 partner limits assumed): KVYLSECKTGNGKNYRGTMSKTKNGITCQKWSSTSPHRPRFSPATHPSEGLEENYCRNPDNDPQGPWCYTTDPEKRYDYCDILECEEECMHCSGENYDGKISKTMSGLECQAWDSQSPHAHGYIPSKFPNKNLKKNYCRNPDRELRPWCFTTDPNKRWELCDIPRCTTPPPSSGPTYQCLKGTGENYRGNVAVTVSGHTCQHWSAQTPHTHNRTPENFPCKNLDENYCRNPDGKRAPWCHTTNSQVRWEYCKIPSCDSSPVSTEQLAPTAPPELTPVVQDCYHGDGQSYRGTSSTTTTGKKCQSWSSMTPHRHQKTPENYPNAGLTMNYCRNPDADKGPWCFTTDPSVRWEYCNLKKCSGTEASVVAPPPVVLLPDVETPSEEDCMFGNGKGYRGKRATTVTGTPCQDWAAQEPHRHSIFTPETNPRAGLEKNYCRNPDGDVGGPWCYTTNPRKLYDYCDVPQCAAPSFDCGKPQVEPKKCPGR
Experimental: The method followed here was similar to that reported earlier. This in vitro experiment was conducted in 96-well platform in pH 7.4 buffer at 25 °C. The clot was generated by the addition of 80 µL of a solution of human thrombin (2.5 µg/mL) in 20 mM TrisHCl buffer containing 10 mM CaCl2 to 60 µL of a solution of fibrinogen (10 mg/mL) and FXIIIa (2 µg/mL) in 20 mM TrisHCl buffer containing 10 mM CaCl2. The resulting clot was stabilized for 15 min at 25 °C. The absorbance was then measured at 405 nm and was ~0.98 across all wells. […] Finally, 5 µL of human plasmin (stock of 1.6 µM) in 20 mM TrisHCl buffer of pH 7.4 containing 2.5 mM CaCl2 and 100 mM NaCl was added to each well and the A405 of each well was recorded over more than 340 min at various time intervals. […] (1) Y=Y0+YM−Y0/1+10^(log[I]0−logIC50)(HS)

[2] = test system: human plasma deficient of FIX; test: APTT clotting assay, FIX-deficient plasma; assay type: biochemical
Experimental: (§2) For the PT assay, thromboplastin-D was reconstituted according to the manufacturer’s directions and warmed to 37 °C. […] After incubation for 4 min at 37 °C, clotting was initiated by adding 100 μL of prewarmed 25 mM CaCl2 and the time to clotting was noted. […] To determine the in vitro effect on the APTT of deficient human plasmas, the APTT assay was repeated, using human plasmas deficient of factor VII (FVII), factor IX (FIX), FXI, or factor XII (FXII). […] The positive control used in APTT and PT assays was rivaroxaban, a clinically used FXa inhibitor. Under the conditions reported, rivaroxaban doubled the APTT and PT at concentrations of 0.123 ± 0.003 µM and 0.193 ± 0.043 µM, respectively.

[3] = test system: platelet-aggregation induced by adenosine diphosphate, epinephrine, thrombin, and collagen; details: cited from earlier work
clotting times = details: cited from earlier work
[4] = test system: human plasma deficient of FXI; test: APTT clotting assay, FXI-deficient plasma; assay type: biochemical
Experimental: as §2

human FXa = human FXa (Homo sapiens, UniProt P00742); test: Michaelis-Menten kinetics of Spectrozyme FXa hydrolysis by FXa; assay type: biochemical; details: for Km / VMAX of Spectrozyme FXa hydrolysis: pH 7.4, 37 °C
human FXa, sequence (P00742 235-488 limits assumed): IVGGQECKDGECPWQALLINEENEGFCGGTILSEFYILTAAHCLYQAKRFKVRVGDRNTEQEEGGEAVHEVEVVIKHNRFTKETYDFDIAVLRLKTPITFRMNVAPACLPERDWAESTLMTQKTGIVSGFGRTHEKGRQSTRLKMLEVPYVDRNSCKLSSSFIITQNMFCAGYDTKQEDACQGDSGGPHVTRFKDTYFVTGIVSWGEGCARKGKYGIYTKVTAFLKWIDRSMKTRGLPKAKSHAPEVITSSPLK
human FXa, sequence (P00742 41-179 partner limits assumed): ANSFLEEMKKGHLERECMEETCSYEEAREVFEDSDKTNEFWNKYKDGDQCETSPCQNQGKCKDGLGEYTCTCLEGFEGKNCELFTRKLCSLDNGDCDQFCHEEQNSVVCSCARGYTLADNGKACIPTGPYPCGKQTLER
Experimental: The initial rate of Spectrozyme FXa hydrolysis by human FXa (87 nM) or that of Spectrozyme PL hydrolysis by human plasmin (120 nM) was monitored from the linear increase in absorbance at 405 nm corresponding to less than 10% consumption of the substrate. […] The data were fitted by Michaelis-Menten Equation (2) to determine KM (substrate affinity to the enzyme) and VMAX (maximum velocity of enzyme reaction). (2) Vi=VMAX×[S]/KM+[S]

normal human plasma = test: APTT clotting assay, normal human plasma; assay type: biochemical; details: normal human plasma (text)
Experimental: as §2

human plasmin [5] = target: T2, human plasmin; test: Plasmin chromogenic substrate hydrolysis assay; assay type: biochemical; details: Spectrozyme PL, pH 7.4, 37 °C
Experimental: as §1
For thrombin and plasmin, the assays were performed using substrates appropriate for each enzyme (Spectrozyme TH for thrombin and Spectrozyme PL for plasmin) under conditions closest to the physiological condition. The KM of the substrate for its enzyme was used to identify the concentration of the substrate to be used for inhibition studies. […] After 10 min incubation, 5 µL Spectrozyme TH (1.0 mM stock conc.) was rapidly added and the residual activity of thrombin was measured from the initial rate of increase in absorbance at 405 nm. […] After 10 min incubation, 5 µL Spectrozyme PL (1.0 mM stock conc.) was rapidly added and the residual activity of plasmin was measured from the initial rate of increase in absorbance at 405 nm. […] Buffer for assays was 20–50 mM Tris-HCl buffer, pH 7.4, containing 100–150 mM NaCl, 2.5 mM CaCl2, 0.1% PEG8000, and 0.02% Tween80. All assays were performed three times.

bovine trypsin = target: T3, bovine trypsin (Bos taurus, UniProt P00760); test: Trypsin chromogenic substrate hydrolysis assay; assay type: biochemical; details: pH 7.4
T3 construct: purchased Millipore-Sigma
T3 sequence (P00760 24-246): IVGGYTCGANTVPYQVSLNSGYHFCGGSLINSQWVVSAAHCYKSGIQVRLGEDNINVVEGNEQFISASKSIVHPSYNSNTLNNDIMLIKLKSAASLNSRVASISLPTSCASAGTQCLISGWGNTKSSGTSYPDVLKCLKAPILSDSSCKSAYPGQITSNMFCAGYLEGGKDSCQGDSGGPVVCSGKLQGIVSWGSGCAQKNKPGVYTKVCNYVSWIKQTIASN
Experimental: Direct inhibition of the human coagulation transglutaminase FXIIIa was also studied using a fluorescence-based transglutamination assay as reported in the literature.
After 10 min incubation, 5 µL FXIa substrate (6.9 mM stock concentration) was rapidly added and the residual FXIa activity was measured from the initial rate of increase in absorbance at 405 nm. Assays were performed in similar fashion with trypsin and chymotrypsin. Stock concentrations used were 18.9 µg/mL (trypsin) and 22.7 mM (S-2222) for bovine trypsin assay (final volume was 200 µL) and 2 µg/mL (chymotrypsin) and 16.2 mM (N-Succinyl-Ala-Ala-Pro-Phe-p-nitroanilide) for bovine chymotrypsin assay (final volume was 200 µL). The buffer used for FXIa, trypsin, chymotrypsin assays was 50 mM Tris-HCl buffer, pH 7.4, containing 150 mM NaCl, 2.5 mM CaCl2, 0.1% PEG8000, and 0.02% Tween80. Neutrophil elastase inhibition assay was performed in a 96-well plate with a final volume of 100 µl with 0.125 M 4-(2-hydroxyethyl)-1-piperazineethanesulfonic acid (HEPES) buffer, pH 7.4 containing 0.125% Triton-X 100, as reported earlier. […] After incubation, 3 µL neutrophil elastase substrate (S-1384; 25 mM stock conc.) was rapidly added and the residual enzyme activity measured from the initial rate of increase in the absorbance at 405 nm.

Compound: N=C(N)c1ccc(OCCCCCOc2ccc(C(=N)N)cc2)cc1 [pentamidine isethionate, 4,4′-(pentane-1,5-diylbis(oxy))-dibenzimidamide]
- IC50 (human α-thrombin; Thrombin, pH 7.4, 37 °C): > 100 µM
- inhibition at 100 µM (human α-thrombin; thrombin, at 100 µM (highest concentration tested)): < 40%
- HS (Hill slope) of clot lysis inhibition (human plasmin [1]): 1.2 ± 0.7
- efficacy (ΔY) of clot lysis inhibition (human plasmin [1]): ~ 58%
- IC50 (human plasmin [1]; read-out: IC50 of fibrinolysis (clot lysis) inhibition): ~3.6 µM and 3.6 µM
- APTTEC2×, concentration to double clotting time [2]: 26.32 ± 3.52 µm
- concentration that completely inhibited platelet-aggregation [3]: greater than 8.4 µM
- concentration that prolongs clotting times (clotting times): greater than 8.4 µM
- APTTEC2×, concentration to double clotting time [4]: 29.48 ± 3.88 µm
- Km (human FXa; 5 µM pentamidine isethionate): 267 ± 21.2 µM
- VMAX of Spectrozyme FXa hydrolysis (human FXa; 5 µM pentamidine isethionate): 114.3 ± 4.7 mAU/min
- Km (human FXa; 10 µM pentamidine isethionate): 410 ± 18.2 µM
- VMAX of Spectrozyme FXa hydrolysis (human FXa; 10 µM pentamidine isethionate): 124.2 ± 3.3 mAU/min
- Km (human FXa; 20 µM pentamidine isethionate): 364 ± 36.6 µM
- VMAX of Spectrozyme FXa hydrolysis (human FXa; 20 µM pentamidine isethionate): 63.1 ± 3.6 mAU/min
- Km (human FXa; 50 µM pentamidine isethionate): 690 ± 63.1 µM
- VMAX of Spectrozyme FXa hydrolysis (human FXa; 50 µM pentamidine isethionate): 60.3 ± 3.8 mAU/min
- decrease of VMAX of Spectrozyme FXa hydrolysis (human FXa; inhibitor 50 μM vs absence): ~ 2.8 fold
- increase of KM for Spectrozyme FXa (human FXa; inhibitor 50 μM vs absence): ~ 2.3 fold
- concentration to double the APTT (normal human plasma): 27.88 ± 2.99 µM
- concentration to double the APTT (normal human plasma; listed as pentamidine): lower than 50 µM
- HS (human plasmin [5]): 1.1 ± 0.1
- IC50 (human plasmin [5]): ~8.4 µM and 8.4 µM
- ∆Y (efficacy) (human plasmin [5]): 98.0 ± 3.3%
- ∆Y (efficacy) (human plasmin [5]; listed as pentamidine): ~ 100%
- HS (bovine trypsin): 1.0 ± 0.2
- IC50 (bovine trypsin): 4.9 ± 0.8 µM
- ∆Y (efficacy) (bovine trypsin): 116.8 ± 7.4%
